Each block holds one compound with its values, some of them ahead of it.
Columns and labels:
[1] = target: T1, Bh0493, uronate isomerase from Bacillus halodurans (Halalkalibacterium halodurans, UniProt Q9KFI6); experiment: X-ray crystal structure, […] Å; assay type: binding; settings: Zn2+, active site; 40 mM ligand; pH 6.0
T1 sequence (Q9KFI6 1-427): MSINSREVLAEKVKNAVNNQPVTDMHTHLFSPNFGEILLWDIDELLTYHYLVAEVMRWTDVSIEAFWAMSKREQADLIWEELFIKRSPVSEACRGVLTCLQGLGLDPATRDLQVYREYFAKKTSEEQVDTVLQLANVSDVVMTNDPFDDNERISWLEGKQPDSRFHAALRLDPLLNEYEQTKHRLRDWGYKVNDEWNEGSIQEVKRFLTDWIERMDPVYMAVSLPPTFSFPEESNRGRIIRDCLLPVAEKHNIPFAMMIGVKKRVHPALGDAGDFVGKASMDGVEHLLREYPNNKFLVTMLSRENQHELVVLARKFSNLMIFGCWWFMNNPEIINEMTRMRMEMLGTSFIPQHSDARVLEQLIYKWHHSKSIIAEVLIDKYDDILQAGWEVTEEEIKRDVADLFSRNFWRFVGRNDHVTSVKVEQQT

[2] = target: T2, uronate isomerase (URI) from E. coli (Escherichia coli, UniProt P0A8G3); experiment: inhibition kinetics, slope inhibition constant; assay type: biochemical
T2 sequence (P0A8G3 1-470): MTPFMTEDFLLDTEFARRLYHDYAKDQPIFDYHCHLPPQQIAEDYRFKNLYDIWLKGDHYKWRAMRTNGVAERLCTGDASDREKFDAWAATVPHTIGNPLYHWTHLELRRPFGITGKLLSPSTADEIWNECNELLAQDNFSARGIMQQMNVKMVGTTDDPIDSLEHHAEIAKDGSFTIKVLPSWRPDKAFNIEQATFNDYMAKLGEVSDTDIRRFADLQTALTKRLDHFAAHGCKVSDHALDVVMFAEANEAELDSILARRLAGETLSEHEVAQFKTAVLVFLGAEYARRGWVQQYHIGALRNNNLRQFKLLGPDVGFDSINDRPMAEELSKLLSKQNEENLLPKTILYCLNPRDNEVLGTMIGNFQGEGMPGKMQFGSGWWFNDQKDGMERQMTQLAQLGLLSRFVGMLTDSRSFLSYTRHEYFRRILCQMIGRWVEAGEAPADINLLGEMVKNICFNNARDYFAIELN

[3] = target: T1, Bh0493, uronate isomerase from Bacillus halodurans; experiment: inhibition kinetics, slope inhibition constant; assay type: biochemical
[4] = target: T1, Bh0493, uronate isomerase from Bacillus halodurans; experiment: X-ray crystal structure, […] Å; assay type: binding; settings: Zn2+, active site; 40 mM ligand; pH 8.5 (form 1), pH 6.0 (form 2)

Compound: O=C(O)[C@H]1OC(O)[C@H](O)[C@@H](O)[C@@H]1O (stereo partly drawn) [I, D-glucuronate]
- X-ray crystal structure, 2.1 Å [1]: In the complex with D-glucuronate, the substrate is bound in the open chain configuration.

- Ki [2]: 45 ± 4 µM
- Ki [3]: 24 ± 2 µM
Compound: O=C(O)[C@H]1OC[C@H](O)[C@@H](O)[C@@H]1O [IV, 2,6-Anhydro-L-gulonic acid]

Compound: O=C(O)[C@@H](O)C(O)[C@H](O)C(=O)O [III, D-arabinarate]
- X-ray crystal structure, 2.2 Å (two crystal forms) [4]: two inhibitors that mimic the proposed cis-enediol(ate) intermediate, D-arabinarate (III) and its hydroxamate derivative (II)

Source: article PMC2773443 (Biochemistry, 2009)
